Laboratory results as given in patent US20220017486A1, “DOCK1-INHIBITING COMPOUND AND USE THEREOF” (KYUSHU UNIVERSITY, NATIONAL UNIVERSITY CORPORATION, priority 2018, published 2022).

How the values were obtained:
[1] = system: T cells (mouse spleen cells); assay: Viability of lymphocytes (propidium iodide, flow cytometry); format: cell-based; conditions: in words, 1-hour culture
Procedure: Specifically, 1×10^6 mouse spleen cells were suspended in 100 μL of RPMI-1640 medium containing 0.5% BSA, and DMSO in which a predetermined concentration of each test compound was dissolved or DMSO alone was added thereto to a final DMSO concentration of 0.2%. After 1-hour culture at 37° C., 2 μL of a propidium iodide staining solution (BD Pharmingen) was added and incubated on ice for 30 minutes, followed by flow cytometry analysis. The percentage of the viable cells under each condition was calculated, considering negative cells to be viable cells.

DOCK1 (DHR-2 domain) = molecular target: T1, DOCK1 (DHR-2 domain) (Homo sapiens, UniProt Q14185); assay: In vitro GEF assay: Rac activation by DOCK1 DHR-2 domain; format: biochemical, mice and humans; conditions: in words
T1 construct: polypeptide fragments corresponding to the DHR-2 domain of DOCK1 or DOCK2 from mice and humans; Histidine-SUMO (N); made in house; host or cells: E. coli Arctic express (DE3)
T1 sequence (Q14185 1207-1617 limits assumed): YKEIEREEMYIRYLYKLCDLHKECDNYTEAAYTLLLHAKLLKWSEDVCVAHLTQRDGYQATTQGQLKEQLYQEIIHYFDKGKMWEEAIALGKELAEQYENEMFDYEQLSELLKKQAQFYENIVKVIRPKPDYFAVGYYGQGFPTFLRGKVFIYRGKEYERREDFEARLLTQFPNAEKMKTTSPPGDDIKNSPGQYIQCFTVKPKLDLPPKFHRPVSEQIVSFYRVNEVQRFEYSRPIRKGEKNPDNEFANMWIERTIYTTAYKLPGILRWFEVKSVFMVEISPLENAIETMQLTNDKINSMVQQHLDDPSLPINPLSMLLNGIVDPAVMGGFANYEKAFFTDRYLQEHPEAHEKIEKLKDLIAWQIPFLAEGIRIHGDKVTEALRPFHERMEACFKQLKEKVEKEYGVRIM
Method in brief: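 Human/mouse His-SUMO DHR-2 fragment preincubated 20 min at RT with compound (1% DMSO) in MES buffer pH 7.0 with 20 μM GDP, then added to GDP-loaded GST-Rac (15 μM) plus 3.6 μM Bodipy-FL-GTP at 30° C. Initial velocity (0–10 s fluorescence slope, ex 488/em 514 nm) vs DMSO control gave IC50.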

[2] = system: CCL21-stimulated T cells (mouse spleen cells); assay: T lymphocyte migration towards CCL21 (Transwell); format: cell-based; conditions: in words, 2-hour incubation
Procedure: In view of the above, the effect of RT-22 (Production Example 1A), which serves as a representative of the compounds of the present invention, on the lymphocyte migration was studied. Specifically, mouse spleen cells (1×10^7 cells/mL) were first precultured at 37° C. for 1 hour in 0.5 mass % BSA-containing RPMI-1640 (Transwell medium), to which DMSO alone or DMSO in which a predetermined concentration of each test compound was dissolved was added. Subsequently, 500 μL of Transwell medium containing 300 ng/mL of CCL21 and DMSO in which a predetermined concentration of each test compound was dissolved was added to a 24-well plate. Then, Transwell inserts (Corning, pore size: 5 μm) were placed in the wells, into which the precultured mouse spleen cells were loaded at 1×10^6 cells/100 μL.
After 2-hour incubation at 37° C., the cells that migrated to the lower chamber were collected and stained with PE-labeled anti-Thy1.2 antibody (53-2-1, BD Pharmingen) and APC-labeled anti-B220 antibody (RA-6B2, eBioscience). The percentage (%) of the migrated cells was calculated by dividing the number of Thy1.2^+ cells (T cells) in the lower chamber by the number of Thy1.2^+ cells (T cells) placed into the Transwell inserts.

COC(=O)c1cc(S(=O)(=O)N2CCCC2)cn1CC(=O)c1ccc(-c2cccc(C(F)(F)F)c2)cc1 [RT-22, methyl 1-(2-oxo-2-(3′-(trifluoromethyl)-[1,1′-biphenyl]-4-yl)ethyl)-4-(pyrrolidin-1-yl-sulfonyl)-1H-pyrrole-2-carboxylate]
viability of T cells [1]: no effect | DOCK1-inhibiting activity compared with TBOPP (DOCK1 (DHR-2 domain); GEF assay): higher than those of TBOPP | selective inhibitory activity against DOCK1 compared to TBOPP (DOCK1 (DHR-2 domain); GEF assay): higher than those of TBOPP | selective inhibitory activity against DOCK1 versus DOCK2 (DOCK1 (DHR-2 domain); GEF assay DOCK1 vs DOCK2 DHR-2 domain): higher selective inhibitory activity against DOCK1 than against DOCK2 | migration of CCL21-stimulated T cells [2]: no effect
